Row | melting point | SMILES
1 | 267 to 271 °C (dec.) | CC(C)(N)c1ccc(-c2nc(Nc3ccc4[nH]ncc4c3)ncc2C#N)cc1 [Example 8, 4-[4-(1-Amino-1-methylethyl)phenyl]-5-cyano-N-(indazol-5-yl)pyrimidine-2-amine]
2 | 167 to 168 °C | COc1cc(Nc2ncc(C#N)c(-c3ccc(C(C)(C)N)cc3)n2)cc(OC)c1OC [Example 9, 4-[4-(1-Amino-1-methylethyl)phenyl]-5-cyano-N-(3,4,5-trimethoxyphenyl)pyrimidine-2-amine]

From patent publication US6579983B1, “5-cyano-2-aminopyrimidine derivatives” (Celltech R&D Limited, priority 1999, dated 2003)
